Measurements: patent US10426773B2, “Systems pharmacology for treating ocular disorders” (Case Western Reserve Univeristy, priority 2011, dated 2019)
“Also recorded” adds a separate entry of the source. Where two headings read alike, the source gives them in different places.

How the values were obtained:
ARPE19 cells [1] = assay: In vitro detection and quantification of intracellular ROS in ARPE19 cells (DCF-DA / DHE probes); assay type: cell-based, human; settings: for intracellular ROS production: retinoid applied to cultured ARPE19 cells, ROS probe DCF-DA or DHE
Method: ARPE19 cells were cultured in Dulbecco's Modified Eagle's Medium (DMEM) (low glucose) supplemented with 10% fetal bovine serum. The ROS probes, 2′,7′-dichlorofluorescein diacetate (DCF-DA, Sigma, St. Louis, Mo.) or dihydroethidium (DHE, Invitrogen Corporation, Carlsbad, Calif.) were added after indicated pretreatments and incubated at 37° C. for 10-min before thorough washing in PBS and the ROS signals were subsequently observed at the same exposure setting under an inverted fluorescence microscope (Leica DMI 6000 B). Fluorescence quantification was performed with Metamorph imaging software (Molecular Devices, Downington, Pa.). Thresholds corresponding to fluorescent signals were set from the images and average fluorescence intensities were recorded for statistical analysis.

ARPE19 cells [2] = tested on: ARPE19 cells
[3] = tested on: ROS generation in photoreceptors of Abca4−/−Rdh8−/− mice; assay: In vivo detection of ROS (DHE probe) in retinas of light-exposed Abca4−/−Rdh8−/− mice; set-up: species or system mouse; settings: for ROS generation in photoreceptors (DHE signal): Example 3, DOX 10 mg/kg, GUB 2.0 mg/kg, SQ 0.5 mg/kg ip 30 min prior to light; for ROS production in the ONL / photoreceptors (DHE signal): Example 1, pretreatment before light 10,000 lux 30 min, retinas 3 h after illumination
Method: The ROS probe, DHE, at a dose of 20 mg/kg body weight was administered to Abca4^−/−Rdh8^−/− mice via intraperitoneal injection 30 min prior to light exposure. Eye cups obtained after removing the cornea, lens and vitreous body from enucleated eye globes 3 h post light illumination were fixed in 4% paraformaldehyde. Cryosections were prepared from fixed eye cups and cut at 12 am thickness for microscopic assessment of ROS signal fluorescence in the retina.
The ROS probe, DHE, at a dose of 20 mg/kg body weight in 25 μl of DMSO, was administered to Abca4^−/−Rdh8^−/− mice via intraperitoneal injection 1 h prior to light exposure. Eye cups obtained after removing the cornea, lens, and vitreous body from enucleated eye globes 3 h post light illumination were fixed in 4% paraformaldehyde. Cryosections were prepared from fixed eye cups and cut at 12-am thickness for microscopic assessment of ROS fluorescence in the retina with ImageJ software (National Institutes of Health).

Abca4−/−Rdh8−/− mice [4] = assay: Bright light-induced retinal degeneration in Abca4−/−Rdh8−/− mice, SLO autofluorescence imaging; assay type: in vivo, mouse; settings: pretreatment before light 10,000 lux 30 min; SLO 8-9 days after light exposure
Method: SLO (Heidelberg Engineering, Heidelberg, Germany) was carried out for whole fundus imaging of mouse retinas. Mice were anesthetized by intraperitoneal injection of anesthetic cocktail indicated above, which was followed by pupil dilation using 1% tropicamide prior to SLO imaging under autofluorescence mode.
(§1) SLO (Heidelberg Engineering) was carried out for in vivo whole fundus imaging of mouse retinas. […] Numbers of autofluorescent spots were counted and subjected to statistical analyses as described below.
SLO (Heidelberg Engineering) was carried out for whole fundus imaging of mouse retinas in vivo. Mice were anesthetized, and their pupils were dilated as described above. SLO images were then acquired in the autofluorescence mode.

BALB/c mice [5] = assay: Light-induced retinal degeneration in BALB/c mice, SLO autofluorescence imaging; assay type: in vivo, mouse; settings: DOX 10, GUB 2.0, SQ 0.5 mg/kg, 7 days after light
Method: as §1
These drugs were administered to 4-week-old BALB/c mice by intraperitoneal injection 30 min prior to white light exposure at 10,000 lux for 1 h. Retinal morphology was assessed 7 days after light exposure by OCT imaging and histological examination.

[6] = Quantification of selected drugs in mouse serum and eye by LC-MS; assay type: in vivo, C57BL/6J WT mice; settings: for Eye ± SD / concentration at 30 min: 30 min after a single ip dose: DOX 10, GUB 2, SQ 0.5 mg per kilogram; for Eye ± SD: mice perfused with PBS; for concentration at 30 min: C57BL/6J, mouse, serum, intraperitoneal, read-out: Serum ± SD; for amount in eye compared with level in 0.1 mL of serum: eye volume taken as about 0.1 mL
Method: C57BL/6J WT mice at 6 weeks of age (Jackson Laboratory) were treated with DOX, GUB, or SQ at a single dose of 10, 2, and 0.5 mg per kilogram, respectively. The compound was dissolved in 50% DMSO in PBS (137 mM NaCl, 2.7 mM KCl, 0.67 mM […]). Next, to precipitate excess proteins, 0.3 ml of methanol was added to both the eye homogenate and 0.1 ml of serum. Samples were vortexed for 30 s followed by centrifugation for 15 min at 16,000 g. Clear supernatants were collected and used directly for LC-MS analysis. 2HPO4/KH2PO4, pH 7.4) and administrated by intraperitoneal injection. Thirty minutes later the mice were anesthetized. Blood samples were collected using the technique of cardiac puncture and subsequently centrifuged (5 min, 16,000 g) to collect serum. Prior to harvesting eyes, mice were intracardially perfused with PBS to minimalize blood contamination. Eye balls were immediately homogenized in 0.1 ml of PBS. The homogenate and serum samples were spiked with 100 pmols of internal standard (IS) (parazosin—2-[4-(2-furoyl)piperazin-1-yl]-6,7-dimethoxyquinazolin-4-amine (Sigma Aldrich) or clenbuterol—(RS)-1-(4-Amino-3,5-dichlorophenyl)-2-(tert-butylamino)ethanol (Sigma Aldrich)) for DOX, GUB or SQ quantification, respectively.
Mass spectrometry (MS) based detection and quantification of DOX, GUB, and SQ was performed with a L×Q linear ion trap mass spectrometer (Thermo Scientific) equipped with an electrospray ionization (ESI) interface and coupled to Agilent 1100 HPLC (Agilent Technologies). Separation of drugs and the internal standards was achieved on a reverse phase C18 Phenomenex HPLC column (250×4.60 mm; 5 μm) by a linear gradient of to 100% acetonitrile in water within 15 min at flow rate of 0.5 ml/min. All solvents contained 0.1% formic acid (v/v). The HPLC effluent was sprayed into the MS via an ESI probe operated in the positive ionization mode. Parameters of ionization and detection were tuned with synthetic standards for the drugs to achieve the highest possible sensitivity. Dox and parazosin (internal standard) were detected by selected reaction monitoring (SRM) using m/z 452.2→344.2 and 384.2→247.1 transitions whereas GUB, SQ and their corresponding IS, clenbuterol, was by fragmentation at m/z 231.1→214.0, 206.1→136.0, and 277.1→259.1, respectively. The elution times for DOX, GUB, and SQ were ˜12.8, 12.3, and 10.8 min, respectively. Both internal standards eluted at 12.0 min (FIG. 34). Calibration curves were calculated based on the linear relationship between ratios of SRM ion intensity peak area corresponding to the selected drug and the IS vs. molar ratios of the compounds in the range of 20-500 pmol (FIG. 34H).

Abca4−/−Rdh8−/− mice [7] = assay: Bright light-induced retinal degeneration in Abca4−/−Rdh8−/− mice, ERG retinal function; settings: pretreatment before light 10,000 lux 30 min, ERG 7 days to 2 weeks after
BALB/c mice [8] = assay: Light-induced retinal degeneration in BALB/c mice, retinal morphology (OCT, histology, IHC); assay type: in vivo, mouse; settings: ip pretreatment 30 min before 10,000 lux, 7 days after light
[9] = tested on: visual pigment regeneration; assay: Effect on chromophore regeneration (ERG responses and 11-cis-retinal levels after bleaching); assay type: in vivo; settings: SQ treatment
Excerpt: It is also worth noting that rhodopsin could be a central player in light-induced retinal degeneration, and that reduced amounts of rhodopsin protect the retina from light-induced degeneration. Therefore we examined the potential impact of the AC inhibitor SQ on chromophore regeneration given that AC is the central player in our newly identified GPCR signaling implicated in light-induced retinopathy (FIG. 1). […] Therefore, the possibility of an acute effect of pharmacological compounds on phototransduction could be ruled out.

Abca4−/−Rdh8−/− mice [10] = assay: Bright light-induced retinal degeneration in Abca4−/−Rdh8−/− mice, retinal histology and immunohistochemistry; assay type: in vivo, mouse; settings: pretreatment before light 10,000 lux 30 min; 7-10 days after light exposure
Method: Retinal histology and immunohistochemistry (IHC) was performed as previously described. Briefly, eye cups free of cornea, lens and vitreous body were fixed in 2% glutaraldehyde/4% paraformaldehyde and processed for Epon embedding. Sections 1 am thick were cut and stained with toluidine blue for histological examination under a light microscope. IHC analysis was performed on 12 am thick cryosections prepared from 4% paraformaldehyde-fixed eye cups. Collected cryosections were subjected to examination for rhodopsin, PNA and DAPI expression.
Retinal immunohistochemistry (IHC) was carried out as previously described. Briefly, eyes were enucleated and eye cups were made to eliminate cornea, lens and vitreous body and fixed in 4% paraformaldehyde and processed for cryosectioning. 12 am thick cryosections were collected cryosections and subjected to examination for rhodopsin, peanut agglutinin lectin (PNA) and DAPI expression.
Retinal immunohistochemistry (IHC) was performed as previously described. Briefly, eyes were enucleated and, after removal of the cornea, lens and vitreous body, eye cups were fixed in 4% paraformaldehyde and processed for cryosectioning. Twelve μm thick cryosections were cut, collected and examined for rhodopsin expression, peanut agglutinin lectin (PNA) for cone sheath and nuclear DAPI staining. […]

Abca4−/−Rdh8−/− mice [11] = assay: Bright light-induced retinal degeneration in Abca4−/−Rdh8−/− mice, OCT imaging of retinal structure; assay type: in vivo, mouse; settings: for retinal / photoreceptor morphology by OCT imaging: pretreatment before light 10,000 lux 30 min, OCT 7 days after light exposure
Abca4−/−Rdh8−/− mice [12] = settings: mouse, in vivo
[13] = retinoid alone, at the doses examined

For CC1=C(/C=C/C(C)=C/C=C/C(C)=C/CO)C(C)(C)CCC1 [atROL, all-trans-retinol], the “intracellular ROS production” value (ARPE19 cells [1]) was “did not induce overproduction of intracellular ROS” and the cell death (ARPE19 cells [2]; [13]) was “neither atROL, atRA nor A2E induced cell death”.
For Nc1ncnc2c1ncn2C1CCCO1 (stereo not drawn) [SQ 22536], the “ROS generation in photoreceptors (DHE signal)” value [3] was “decreased”, the “retinal autofluorescence spots by SLO imaging” value (Abca4−/−Rdh8−/− mice [4]) was “dose-dependent effect” and the “autofluorescent spots by SLO” value (BALB/c mice [5]) was “prevented”. For the same compound, the “Eye ± SD” value [6] was 5.6 ± 2.2 pmol/eye, the concentration at 30 min [6] was 193 ± 55 nM and the “amount in eye compared with level in 0.1 mL of serum” value [6] was 5 times lower. The “retinal function by ERG (a-wave and b-wave amplitudes)” value (shortened to “retinal function by ERG”) (Abca4−/−Rdh8−/− mice [7]; listed as SQ) was “substantial preservation of the scotopic ERG response; also recorded: substantial preservation of this response”, the “retinal morphology / ONL (OCT, histology)” value (BALB/c mice [8]) was “retinal morphology of drug-treated mice was maintained” and the “ERG responses and 11-cis-retinal levels after bleaching” value [9] was “no significant changes”. For the same compound, the “retinal histology / immunohistochemistry (rhodopsin, PNA, DAPI; ONL)” value (shortened to “retinal histology / immunohistochemistry”) (Abca4−/−Rdh8−/− mice [10]) was “substantially preserved photoreceptor morphology” and the “retinal / photoreceptor morphology by OCT imaging” value (“retinal / photoreceptor morphology” for short) (Abca4−/−Rdh8−/− mice [11]) was “protected retinas from light-induced degeneration in a dose-dependent manner”.
In the case of N=C(N)N/N=C/c1c(Cl)cccc1Cl [Guanbenz], the “ROS generation in photoreceptors (DHE signal)” value [3] is reported as “decreased”, the “retinal autofluorescence spots by SLO imaging” value (Abca4−/−Rdh8−/− mice [4]) is reported as “markedly less autofluorescence spots” and the “autofluorescent spots by SLO” value (BALB/c mice [5]) is reported as “prevented”. The “Eye ± SD” value [6] was 13.1 ± 4.7 pmol/eye, the concentration at 30 min [6] was 70 ± 18 nM and the “amount in eye compared with level in 0.1 mL of serum” value ([6]; listed as GUB) was “comparable”. The “retinal morphology / ONL (OCT, histology)” value (BALB/c mice [8]) was “retinal morphology of drug-treated mice was maintained”, the “retinal histology / immunohistochemistry” value (Abca4−/−Rdh8−/− mice [10]) was “substantially preserved photoreceptor morphology” and the “retinal / photoreceptor morphology” value (Abca4−/−Rdh8−/− mice [11]; listed as GUB) was “significantly prevented; also recorded: dose-dependent fashion”. The “half maximal effective (protective) dose” value (Abca4−/−Rdh8−/− mice [11]; protection from bright light-induced degeneration, dose-response, FIG. 25A/B) was 0.3 mg/kg.
For CC1=C(/C=C/C(C)=C/C=C/C(C)=C/c2cc(/C=C/C=C(C)/C=C/C3=C(C)CCCC3(C)C)cc[n+]2CCO)C(C)(C)CCC1 [A2E, di-retinoid-pyridinium-ethanolamine], the “intracellular ROS production” value (ARPE19 cells [1]) was “did not induce overproduction of intracellular ROS” and the cell death (ARPE19 cells [2]; [13]) was “neither atROL, atRA nor A2E induced cell death”.
With CC1=C(/C=C/C(C)=C/C=C/C(C)=C/C(=O)O)C(C)(C)CCC1 [atRA, all-trans-retinoic acid] the “intracellular ROS production” value (ARPE19 cells [1]) was “did not induce overproduction of intracellular ROS” and the cell death (ARPE19 cells [2]; human, 24 h) was “neither atROL, atRA nor A2E induced cell death”.
In the case of COc1cc(C(C)=O)ccc1O [APO, Apocynin], the “ROS production in the ONL / photoreceptors (DHE signal)” value [3] is reported as “substantially decreased ROS production”, the “retinal function by ERG” value (Abca4−/−Rdh8−/− mice [7]) is reported as “protective effect” and the “atRAL-induced intracellular ROS generation” value (ARPE19 cells [1]; APO applied to ARPE19 cells together with atRAL) is reported as “inhibited atRAL-induced intracellular ROS generation”. The “retinal histology / immunohistochemistry” value (Abca4−/−Rdh8−/− mice [10]) was “nearly intact retinal morphology”, the ARPE19 cell survival (ARPE19 cells [2]; APO together with atRAL) was “improved ARPE19 cell survival” and the “retinal / photoreceptor morphology” value (Abca4−/−Rdh8−/− mice [11]) was “well-preserved retinal morphology”.
With NCCOB(c1ccccc1)c1ccccc1 [2-APB, 2-aminoethoxydiphenyl borate] the “ROS production in the ONL / photoreceptors (DHE signal)” value [3] was “reduced ROS production”, the “retinal function by ERG” value (Abca4−/−Rdh8−/− mice [12]) was “protective effect” and the “retinal histology / immunohistochemistry” value (Abca4−/−Rdh8−/− mice [10]) was “significantly preserved retinal morphology”.
